Here are results for nine compounds from US10653717B2, “Antibiotic compositions” (priority 2016, dated 2020).

Experiment [1] has as its system KP-1: Klebsiella pneumonia subsp. pneumonia 13#. Nature of the experiment: Drug sensitivity of clinical isolated strain. Further: key: R: resistant; S: sensitive. The format is cell-based. As to conditions: KP-1 (Table 3).
Experiment [2] has as its system AB-1: Acinetobacter baumannii H#. Description: Drug sensitivity of clinical isolated strain. Further: key: R: resistant; S: sensitive. The format is cell-based.
For the next experiment, the system named is AB-2: A. baumannii 0361#. Nature of the experiment: Drug sensitivity of clinical isolated strain. Further: key: R: resistant; S: sensitive. The format is cell-based, Acinetobacter baumannii. Conditions: AB-2 (Table 3).
A further experiment concerns ECO-2: E. coli 2219#. Nature of the experiment: Drug sensitivity of clinical isolated strain. Further: key: R: resistant; S: sensitive. The format is cell-based, Escherichia coli. Conditions: ECO-2 (Table 3).
For experiment [3], the system named is PA-1: Pseudomonas aeruginose 1298#. Nature of the experiment: Drug sensitivity of clinical isolated strain. Further: key: R: resistant; S: sensitive. The experiment is classed as cell-based, Pseudomonas aeruginosa.
Experiment [4] deals with PA-2: P. aeruginose 0009#. Nature of the experiment: Drug sensitivity of clinical isolated strain. Further: key: R: resistant; S: sensitive. The format is cell-based, Pseudomonas aeruginosa. As to conditions: PA-2 (Table 3).
In experiment [5] the test system is ECO-1: Escherichia coli 1139#. Nature of the experiment: Drug sensitivity of clinical isolated strain. Further: key: R: resistant; S: sensitive. The format is cell-based.
Experiment [6] has as its system KP-2: K. pneumonia subsp. pneumonia 0322#. Nature of the experiment: Drug sensitivity of clinical isolated strain. Further: key: R: resistant; S: sensitive. The experiment is classed as cell-based, Klebsiella pneumonia.
A further experiment relates to ECO-3: E. coli ZY-1. Description: Drug sensitivity of clinical isolated strain. Further: key: R: resistant; S: sensitive. The experiment is classed as cell-based, Escherichia coli.
For experiment [7], the system named is ECL-1: Enterobacter cloacae 0431#. Nature of the experiment: Drug sensitivity of clinical isolated strain. Further: key: R: resistant; S: sensitive. The format is cell-based. Conditions: ECL-1 (Table 3).
In experiment [8] the test system is ECL-2: E. cloacae 2301#. Description: Drug sensitivity of clinical isolated strain. Further: key: R: resistant; S: sensitive. The experiment is classed as cell-based, Enterobacter cloacae.
Experiment [9] concerns KP-2: K. pneumonia subsp. pneumonia 0322#. Description: MIC of silver with antibiotics on clinical isolated MDR Gram-negative bacteria. The format is cell-based, Klebsiella pneumonia. As to conditions: antibiotic 4 μM. How it is done:
(§1) There are five clinically most difficult-to-treat MDR Gram-negative pathogen species: Klebsiella pneumonia, Acinetobacter baumannii, Pseudomonas aeruginosa, Enterobacter cloacae and Escherichia coli. One strain from each species was isolated, and overnight cultures were diluted 1:1000 times in LB medium, and treated with serial concentrations of Ag^+ and antibiotics in combinations for 24 h (Table 10).
(§2) Five clinical isolated MDR Gram-negative strains were grown until an OD600 nm of 0.4, and were diluted 1:1,000 into 100 μl LB medium in 96 micro-well plates. […] The cultures treated with the same serial dilutions of 100 μl ebselen and silver nitrate were used as the positive control.

The test system of experiment [10] is ECO-1: Escherichia coli 1139#. The experiment is described as above. The experiment is classed as cell-based. As to conditions: antibiotic 4 μM. As for the experimental part:
as §1, §2

Experiment [11] relates to AB-1: Acinetobacter baumannii H#. The experiment is described as above. The format is cell-based. As to conditions: antibiotic 4 μM. As for the experimental part:
as §1, §2

For experiment [12], the system named is PA-1: Pseudomonas aeruginosa 1298#. The description is as above. The experiment is classed as cell-based. Conditions: antibiotic 4 μM. As for the experimental part:
as §1, §2

Experiment [13] has as its system ECL-2: E. cloacae 2301#. Described as above. The experiment is classed as cell-based, Enterobacter cloacae. Conditions: antibiotic 4 μM. How it is done: as §1, §2

Consider `C[C@H]1COc2c(N3CCN(C)CC3)c(F)cc3c(=O)c(C(=O)O)cn1c23` [Levofloxacin], for which the Drug sensitivity result (in [1]; in [2] (AB-1 (Table 3)); in [2] (AB-1 (table of Example 3)); in the experiment on AB-2: A. baumannii 0361#; in the experiment with ECO-2: E. coli 2219#; in experiment [3] (PA-1 (Table 3))) was “R” in each case. In addition, the Drug sensitivity result in [3] (PA-1 (table of Example 3)), in experiment [4], in [5] (ECO-1 (Table 3)), in [5] (ECO-1 (table of Example 3)), in experiment [6] (KP-2 (Table 3)) and in experiment [6] (KP-2 (table of Example 3)) was “R” in each case. Also, the Drug sensitivity result in the experiment with ECO-3: E. coli ZY-1 (E. coli ZY-1 (Table 7)) is listed as “S”; in experiment [7], “R”; in the experiment with ECL-2: E. cloacae 2301# [8] (ECL-2 (Table 3)) it was “R”; in the experiment with ECL-2: E. cloacae 2301# [8] (ECL-2 (table of Example 3)), “R”.
As for `NC[C@H]1O[C@H](O[C@H]2[C@H](O)[C@@H](O[C@H]3O[C@H](CO)[C@@H](O)[C@H](N)[C@H]3O)[C@H](N)C[C@@H]2N)[C@H](O)[C@@H](O)[C@@H]1O` [Kanamycin], the “MIC of silver in the presence of different antibiotics” value (from here on “MIC … of different antibiotics”) stood at 160 µM in experiment [9]; 40 µM in experiment [10]; 80 µM in experiment [11]; 80 µM in experiment [12]; 160 µM with ECL-2: E. cloacae 2301# [13].
Turning to `CN(C)[C@@H]1C(O)=C(C(N)=O)C(=O)[C@@]2(O)C(O)=C3C(=O)c4c(O)cccc4[C@@](C)(O)[C@H]3C[C@@H]12` [Tetracycline], the Drug sensitivity result is recorded as “R” in experiment [2] (AB-1 (Table 3)); “R” in experiment [2] (AB-1 (table of Example 3)); “R” with AB-2: A. baumannii 0361#; “S” with ECO-2: E. coli 2219#; “R” in [3] (PA-1 (Table 3)); “R” in experiment [3] (PA-1 (table of Example 3)). Further, the Drug sensitivity entry in experiment [4] is reported as “R”; in experiment [5] (ECO-1 (Table 3)), “R”; in [5] (ECO-1 (table of Example 3)) it was “R”; with ECO-3: E. coli ZY-1 (E. coli ZY-1 (Table 7)), “R”; in the experiment with ECO-3: E. coli ZY-1 (ECO-3 (Table 3)), “S”; in experiment [7], “R”. Moreover, the Drug sensitivity result in the experiment with ECL-2: E. cloacae 2301# [8] (ECL-2 (Table 3)) and with ECL-2: E. cloacae 2301# [8] (ECL-2 (table of Example 3)) was “R” in each case. Also, the “MIC … of different antibiotics” value in experiment [10], in experiment [11] and in experiment [12] was 80 µM throughout.
With `C[C@]1(Cn2ccnn2)[C@H](C(=O)O)N2C(=O)C[C@H]2S1(=O)=O` [Tazobactam], the Drug sensitivity result in [1] is listed as “R”; in experiment [2] (AB-1 (Table 3)), “R”; in [2] (AB-1 (table of Example 3)), “R”; with AB-2: A. baumannii 0361# it was “R”; in the experiment on ECO-2: E. coli 2219#, “R/S”; in experiment [3] (PA-1 (Table 3)), “R/S”. The Drug sensitivity entry in experiment [3] (PA-1 (table of Example 3)) is “R/S”; in [4], “R”; in experiment [5] (ECO-1 (Table 3)) it was “S”; in experiment [5] (ECO-1 (table of Example 3)), “S”; in [6] (KP-2 (Table 3)), “R”; in [6] (KP-2 (table of Example 3)), “R”. Also, the Drug sensitivity result in the experiment on ECO-3: E. coli ZY-1 (E. coli ZY-1 (Table 7)) is reported as “S”; with ECO-3: E. coli ZY-1 (ECO-3 (Table 3)) it was “S”; in experiment [7], “S”; in the experiment with ECL-2: E. cloacae 2301# [8] (ECL-2 (Table 3)), “R”; in the experiment with ECL-2: E. cloacae 2301# [8] (ECL-2 (table of Example 3)), “R”.
On to `CO/N=C(\C(=O)N[C@@H]1C(=O)N2C(C(=O)[O-])=C(C[N+]3(C)CCCC3)CS[C@H]12)c1csc(N)n1` [Cefepime], for which the Drug sensitivity result (in [1]; in [2] (AB-1 (Table 3)); in [2] (AB-1 (table of Example 3)); in the experiment on AB-2: A. baumannii 0361#; in the experiment with ECO-2: E. coli 2219#; in [3] (PA-1 (Table 3))) was “R” in each case. Further, the Drug sensitivity result in experiment [3] (PA-1 (table of Example 3)), in experiment [4], in experiment [5] (ECO-1 (Table 3)), in experiment [5] (ECO-1 (table of Example 3)), in experiment [6] (KP-2 (Table 3)) and in experiment [6] (KP-2 (table of Example 3)) was “R” each time. In addition, the Drug sensitivity entry in the experiment with ECO-3: E. coli ZY-1 (E. coli ZY-1 (Table 7)) was “S”; in the experiment on ECO-3: E. coli ZY-1 (ECO-3 (Table 3)) it was “S”; in experiment [7], “R”; with ECL-2: E. cloacae 2301# [8] (ECL-2 (Table 3)), “R”; in the experiment on ECL-2: E. cloacae 2301# [8] (ECL-2 (table of Example 3)), “R”.
For the compound `CC(C)(O/N=C(\C(=O)N[C@@H]1C(=O)N2C(C(=O)[O-])=C(C[n+]3ccccc3)CS[C@H]12)c1csc(N)n1)C(=O)O` [Ceftazidime], the Drug sensitivity entry (in [1]; in experiment [2] (AB-1 (Table 3)); in experiment [2] (AB-1 (table of Example 3)); with AB-2: A. baumannii 0361#; in the experiment with ECO-2: E. coli 2219#; in experiment [3] (PA-1 (Table 3))) was “R” each time. For the same compound, the Drug sensitivity result in [3] (PA-1 (table of Example 3)) was “R”; in experiment [4], “R”; in experiment [5] (ECO-1 (Table 3)) it was “R/S”; in experiment [5] (ECO-1 (table of Example 3)), “R/S”; in experiment [6] (KP-2 (Table 3)) it was “R”; in [6] (KP-2 (table of Example 3)) it was “R”. The Drug sensitivity entry with ECO-3: E. coli ZY-1 (E. coli ZY-1 (Table 7)) is “S”; in the experiment on ECO-3: E. coli ZY-1 (ECO-3 (Table 3)) it was “S”; in experiment [7] it was “R”; in the experiment on ECL-2: E. cloacae 2301# [8] (ECL-2 (Table 3)) it was “R”; in the experiment with ECL-2: E. cloacae 2301# [8] (ECL-2 (table of Example 3)), “R”.
Take `C[C@@H](O)[C@H]1C(=O)N2C(C(=O)O)=C(S[C@@H]3CN[C@H](C(=O)N(C)C)C3)[C@H](C)[C@H]12` [Meropenem]: the Drug sensitivity result in experiment [1] is listed as “R”; in experiment [2] (AB-1 (Table 3)), “R”; in experiment [2] (AB-1 (table of Example 3)), “R”; with AB-2: A. baumannii 0361#, “R”; in the experiment with ECO-2: E. coli 2219#, “S”; in experiment [3] (PA-1 (Table 3)), “R”. Also, the Drug sensitivity entry in [3] (PA-1 (table of Example 3)) was “R”; in experiment [4], “R/S”; in [5] (ECO-1 (Table 3)) it was “S”; in experiment [5] (ECO-1 (table of Example 3)) it was “S”; in experiment [6] (KP-2 (Table 3)), “S”; in experiment [6] (KP-2 (table of Example 3)) it was “S”. In addition, the Drug sensitivity result was “S” in the experiment with ECO-3: E. coli ZY-1 (E. coli ZY-1 (Table 7)); “S” in the experiment on ECO-3: E. coli ZY-1 (ECO-3 (Table 3)); “S” in [7]; “R” in the experiment with ECL-2: E. cloacae 2301# [8] (ECL-2 (Table 3)); “R” with ECL-2: E. cloacae 2301# [8] (ECL-2 (table of Example 3)).
As for `CN[C@@H]1[C@@H](O)[C@@H](O[C@@H]2[C@@H](O)[C@H](O[C@H]3O[C@H]([C@@H](C)O)[C@@H](O)[C@H](O)[C@H]3N)[C@@H](N)C[C@H]2N)OC[C@]1(C)O` [Geneticin], the “MIC … of different antibiotics” value turned out to be 160 µM in [9]; 40 µM in experiment [10]; 80 µM in [11]; 80 µM in experiment [12]; 160 µM with ECL-2: E. cloacae 2301# [13].
For the compound `CCN1CCN(C(=O)N[C@@H](C(=O)N[C@@H]2C(=O)N3[C@@H]2SC(C)(C)[C@@H]3C(=O)O)c2ccccc2)C(=O)C1=O` [Piperacillin], the Drug sensitivity result is recorded as “R” in experiment [1]; “R” in experiment [2] (AB-1 (Table 3)); “R” in experiment [2] (AB-1 (table of Example 3)); “R” in the experiment with AB-2: A. baumannii 0361#; “R” with ECO-2: E. coli 2219#; “R/S” in [3] (PA-1 (Table 3)). For the same compound, the Drug sensitivity entry in experiment [3] (PA-1 (table of Example 3)) is on record as “R/S”; in [4], “R”; in experiment [5] (ECO-1 (Table 3)) it was “R”; in [5] (ECO-1 (table of Example 3)), “R”; in experiment [6] (KP-2 (Table 3)), “R”; in [6] (KP-2 (table of Example 3)), “R”. In addition, the Drug sensitivity result is “S” in the experiment on ECO-3: E. coli ZY-1 (E. coli ZY-1 (Table 7)); “S” with ECO-3: E. coli ZY-1 (ECO-3 (Table 3)); “R” in experiment [7]; “R” in the experiment on ECL-2: E. cloacae 2301# [8] (ECL-2 (Table 3)); “R” in the experiment on ECL-2: E. cloacae 2301# [8] (ECL-2 (table of Example 3)).
